According to patent US20250122225A1, “MASP-2 INHIBITORS AND METHODS OF USE” (Omeros Corporation, priority 2023, published 2025):
pKi: −log10 of the molar value. Structures can show the parent of a compound that is named as a salt.

Assays:
human α-thrombin = molecular target: T1, human α-thrombin (Homo sapiens, UniProt P00734); assay: Enzymatic assay for thrombin (fluorogenic peptide substrate Boc-VPR-AMC); assay type: biochemical
T1 construct: enzyme (human α-thrombin (BioPharm® Lab.)) in assay buffer; purchased BioPharm® Lab
Summary of the method: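 Human α-thrombin was run with the fluorogenic substrate Boc-VPR-AMC in 20 mM Hepes pH 7.4, 140 mM NaCl, 0.1% Tween 20 at room temperature for 20 min, then stopped with 0.1 M acetic acid. % activity was normalized to DMSO and no-enzyme controls. Under linear conditions IC50 equalled Ki, except for tight-binding inhibitors.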

MASP-2 (CCP1-CCP2-SP) = molecular target: T2, MASP-2 (CCP1-CCP2-SP) (Homo sapiens, UniProt O00187); assay: Enzymatic assay for MASP-2 inhibitory activity (fluorogenic substrate); assay type: biochemical
T2 construct: 15 μL of Enzyme MASP-2 (CCP1-CCP2-SP) in Assay Buffer
T2 sequence (O00187 445-686 limits assumed): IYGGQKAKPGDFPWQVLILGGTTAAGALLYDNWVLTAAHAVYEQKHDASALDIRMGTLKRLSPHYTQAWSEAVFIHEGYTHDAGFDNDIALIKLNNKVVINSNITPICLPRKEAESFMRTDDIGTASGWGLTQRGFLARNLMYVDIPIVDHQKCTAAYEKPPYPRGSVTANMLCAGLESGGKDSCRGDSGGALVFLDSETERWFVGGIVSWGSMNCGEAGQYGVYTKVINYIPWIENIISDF
T2 sequence (O00187 287-444 partner limits assumed): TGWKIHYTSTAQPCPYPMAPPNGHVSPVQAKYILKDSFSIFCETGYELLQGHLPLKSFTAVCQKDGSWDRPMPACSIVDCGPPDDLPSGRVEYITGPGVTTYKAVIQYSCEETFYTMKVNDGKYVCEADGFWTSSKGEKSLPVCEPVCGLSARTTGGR
Summary of the method: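 MASP-2 (CCP1-CCP2-SP) cleaved a fluorogenic substrate based on the C2 cleavage site in 20 mM HEPES pH 7.4, 140 mM NaCl, 0.1% Tween 20 at room temperature. After 20 min the reaction was stopped with 0.1 M acetic acid and fluorescence read. % activity was normalized to DMSO-only and no-enzyme controls; IC50 taken as Ki.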

Row | Compound | pKi (human α-thrombin) | pKi (MASP-2 (CCP1-CCP2-SP))
1 | O=C(NCc1cc2cnccc2[nH]1)[C@@H]1CCc2c(Cl)nc(NCC3CCc4ccccc4C3)c(=O)n21 (stereo partly drawn) [Compound 145, (6S)-N-((1H-pyrrolo[3,2-c]pyridin-2-yl)methyl)-1-chloro-4-oxo-3-(((1,2,3,4-tetrahydronaphthalen-2-yl)methyl)amino)-4,6,7,8-tetrahydropyrrolo[1,2-a]pyrazine-6-carboxamide] | < 4.60 | > 6.30
2 | O=C(NCc1cc2cnccc2[nH]1)[C@@H]1CCc2c(Cl)nc(NCc3cccc(CO)c3)c(=O)n21 [Compound 6, (S)-N-((1H-pyrrolo[3,2-c]pyridin-2-yl)methyl)-1-chloro-3-((3-(hydroxymethyl)benzyl)amino)-4-oxo-4,6,7,8-tetrahydropyrrolo[1,2-a]pyrazine-6-carboxamide] | 5.00 to 5.60 | > 6.30
3 | CC1(C)C[C@@H](C(=O)NCc2cc3cnccc3[nH]2)n2c1c(Cl)nc(NCc1ccccc1)c2=O [Compound 229, (S)-N-((1H-pyrrolo[3,2-c]pyridin-2-yl)methyl)-3-(benzylamino)-1-chloro-8,8-dimethyl-4-oxo-4,6,7,8-tetrahydropyrrolo[1,2-a]pyrazine-6-carboxamide trifluoroacetate] | 5.00 to 5.60 | > 6.30
4 | Cc1cc(F)cc(CNc2nc(C(C)C)c3n(c2=O)[C@H](C(=O)NCc2ccc(N)nc2C)CC3)c1 [Compound 211, (S)-N-((6-amino-2-methylpyridin-3-yl)methyl)-3-((3-fluoro-5-methylbenzyl)amino)-1-isopropyl-4-oxo-4,6,7,8-tetrahydropyrrolo[1,2-a]pyrazine-6-carboxamide trifluoroacetate] | > 6.30 | > 6.30
5 | NCc1ccc(CNC(=O)[C@@H]2CCc3c(Cl)nc(NCc4ccc5c(c4)CCCC5)c(=O)n32)s1 [Compound 225, (S)—N-((5-(aminomethyl)thiophen-2-yl)methyl)-1-chloro-4-oxo-3-(((5,6,7,8-tetrahydronaphthalen-2-yl)methyl)amino)-4,6,7,8-tetrahydropyrrolo[1,2-a]pyrazine-6-carboxamide trifluoroacetate] | < 4.60 | > 6.30
6 | Cc1ccccc1[C@H](C)Nc1ncc2n(c1=O)[C@H](C(=O)NCc1cc3c(s1)CNC3)CC2 [Compound 94, (S)-N-((5,6-dihydro-4H-thieno[2,3-c]pyrrol-2-yl)methyl)-4-oxo-3-(((S)-1-(o-tolyl)ethyl)amino)-4,6,7,8-tetrahydropyrrolo[1,2-a]pyrazine-6-carboxamide] | 5.60 to 6.30 | > 6.30
7 | [2H]C([2H])([2H])c1nc(NCc2cc(C)cc(F)c2)c(=O)n2c1CC[C@H]2C(=O)NCc1ccc(N)nc1C [Compound 218, (S)-N-((6-amino-2-methylpyridin-3-yl)methyl)-3-((3-fluoro-5-methylbenzyl)amino)-1-(methyl-d3)-4-oxo-4,6,7,8-tetrahydropyrrolo[1,2-a]pyrazine-6-carboxamide trifluoroacetate] | > 6.30 | > 6.30
8 | CC(C)[C@@H](Nc1ncc2n(c1=O)[C@H](C(=O)N[C@H](C)c1cc3c(s1)CNC3)CC2)c1ccccc1 [Compound 274, (S)-N-((R)-1-(5,6-dihydro-4H-thieno[2,3-c]pyrrol-2-yl)ethyl)-3-(((R)-2-methyl-1-phenylpropyl)amino)-4-oxo-4,6,7,8-tetrahydropyrrolo[1,2-a]pyrazine-6-carboxamide trifluoroacetate] | 5.60 to 6.30 | > 6.30
9 | CC(C)(C)[C@@H](Nc1ncc2n(c1=O)[C@H](C(=O)NCc1cc3c(s1)CNC3)CC2)c1ccccc1 [Compound 264, (S)-N-((5,6-dihydro-4H-thieno[2,3-c]pyrrol-2-yl)methyl)-3-(((R)-2,2-dimethyl-1-phenylpropyl)amino)-4-oxo-4,6,7,8-tetrahydropyrrolo[1,2-a]pyrazine-6-carboxamide trifluoroacetate] | > 6.30 | > 6.30
10 | O=C(NCc1cc2cnccc2[nH]1)[C@@H]1CCc2c(-c3cn[nH]c3)nc(NCCc3ccccc3)c(=O)n21 [Compound 246] | < 4.60 | > 6.30

Continued, values first:

Row | pKi (human α-thrombin) | pKi (MASP-2 (CCP1-CCP2-SP)) | Compound
11 | > 6.30 | > 6.30 | Cc1nc(N)ccc1CNC(=O)[C@@H]1CCc2cnc(NCc3cccc(S(C)(=O)=O)c3)c(=O)n21 [Compound 99, (S)—N-((6-amino-2-methylpyridin-3-yl)methyl)-3-((3-(methylsulfonyl)benzyl)amino)-4-oxo-4,6,7,8-tetrahydropyrrolo[1,2-a]pyrazine-6-carboxamide trifluoroacetate]
12 | > 6.30 | > 6.30 | Cc1cc(CNc2ncc3n(c2=O)[C@H](C(=O)NCc2ccc(N)nc2C)CC3)cc(C(F)(F)F)c1 [Compound 37, (S)-N-((6-amino-2-methylpyridin-3-yl)methyl)-3-((3-methyl-5-(trifluoromethyl)benzyl)amino)-4-oxo-4,6,7,8-tetrahydropyrrolo[1,2-a]pyrazine-6-carboxamide]
13 | > 6.30 | > 6.30 | Cc1nc(N)ccc1CNC(=O)[C@@H]1CCc2cnc(NCc3cccc(C(C)C)c3)c(=O)n21 [Compound 208]
14 | 5.00 to 5.60 | > 6.30 | Cc1cccc(CNc2ncc3n(c2=O)[C@H](C(=O)N[C@H](C)c2ccc(N)nc2)CC3)c1 [Compound 187, (S)-N-((R)-1-(6-aminopyridin-3-yl)ethyl)-3-((3-methylbenzyl)amino)-4-oxo-4,6,7,8-tetrahydropyrrolo[1,2-a]pyrazine-6-carboxamide]
15 | 5.60 to 6.30 | > 6.30 | Cc1cc(C)cc(CNc2ncc3n(c2=O)[C@H](C(=O)NCc2ccc4[nH]ncc4c2)CC3)c1 [Compound 281, (S)—N-((1H-indazol-5-yl)methyl)-3-((3,5-dimethylbenzyl)amino)-4-oxo-4,6,7,8-tetrahydropyrrolo[1,2-a]pyrazine-6-carboxamide]
16 | 5.60 to 6.30 | > 6.30 | O=C(NCc1cc2c(s1)CNC2)[C@@H]1CCc2cnc(NCc3cccc(-c4ccccc4)c3)c(=O)n21 [Compound 285, (S)-3-(([1,1′-biphenyl]-3-ylmethyl)amino)-N-((5,6-dihydro-4H-thieno[2,3-c]pyrrol-2-yl)methyl)-4-oxo-4,6,7,8-tetrahydropyrrolo[1,2-a]pyrazine-6-carboxamide trifluoroacetate]
17 | 5.00 to 5.60 | > 6.30 | Cc1cc(F)cc(CNc2ncc3n(c2=O)[C@H](C(=O)N[C@H](C)c2ccc(N)nc2)CC3)c1 [Compound 191, (S)-N-((R)-1-(6-aminopyridin-3-yl)ethyl)-3-((3-fluoro-5-methylbenzyl)amino)-4-oxo-4,6,7,8-tetrahydropyrrolo[1,2-a]pyrazine-6-carboxamide trifluoroacetate]
18 | > 6.30 | > 6.30 | Cc1ccccc1CNc1ncc2n(c1=O)[C@H](C(=O)NCc1ccc(N)nc1C)CC2 [Compound 52, (S)-N-((6-amino-2-methylpyridin-3-yl)methyl)-3-((2-methylbenzyl)amino)-4-oxo-4,6,7,8-tetrahydropyrrolo[1,2-a]pyrazine-6-carboxamide]
19 | > 6.30 | > 6.30 | Cc1nc(N)ccc1CNC(=O)[C@@H]1CCc2cnc(NCc3cccc(CO)c3)c(=O)n21 [Compound 47, (S)-N-((6-amino-2-methylpyridin-3-yl)methyl)-3-((3-(hydroxymethyl)benzyl)amino)-4-oxo-4,6,7,8-tetrahydropyrrolo[1,2-a]pyrazine-6-carboxamide]
